The source of these data is patent publication US20100184683A1, “ANTIBACTERIAL AND ANTIFUNGAL PEPTIDES” (C3 JIAN, INC., priority 2009, published 2010).

Converted amounts (≈) assume the structure as drawn. Like-named read-outs stand apart in the source and are kept apart here. Peptide text beside a SMILES is read from it.

In one test the test system is B. subtilis. In kind it is cell-based, Bacillus subtilis. How it is done:
(§1) In certain embodiments the MIC assays are performed as described herein in the Examples. For each organism, the media and growth conditions utilized is detailed in Table 8.
(§2) In certain embodiments the MIC assays are performed as follows: For each organism, the media and growth conditions utilized is detailed in Table 8.

The subject of a further test is A. niger. In kind it is cell-based, Aspergillus niger. How it is done:
as §1, §2

A further test deals with MRSA. It is filed as cell-based, Methicillin-resistant Staphylococcus aureus. How it is done:
as §1, §2

For another test, the system named is S. pneumoniae. In kind it is cell-based, Streptococcus pneumoniae. How it is done: as §1, §2
The mark [1] stands for this setting: A. niger, Potato Dextrose Agar, 25° C., aerobic, inoculum 10^5 CFU/ml, 18-24 h or 48 h.
Setting [2] is: S. pneumoniae, TSB supplemented with 5% yeast extract, 37° C., 10% CO2, inoculum 10^6 CFU/ml, 18-24 h or 48 h.

As a reminder, the MIC is the least concentration at which growth counts as inhibited. A higher MIC goes with weaker potency. In the test on B. subtilis, `CC[C@H](C)[C@H](NC(=O)CN)C(=O)N[C@H](C(=O)N[C@@H](CC(C)C)C(=O)N[C@H](C(=O)NCC(=O)N[C@@H](CC(C)C)C(=O)N[C@@H](CCCCN)C(=O)N[C@@H](CC(C)C)C(=O)N[C@H](C(=O)N1CCC[C@H]1C(=O)N[C@@H](CC(C)C)C(=O)N[C@@H](CC(C)C)C(=O)N[C@@H](C)C(=O)N[C@@H](CC(N)=O)C(=O)N[C@H](C(=O)N[C@@H](CC(C)C)C(=O)N[C@@H](CCCNC(=N)N)C(=O)O)C(C)C)[C@@H](C)CC)[C@@H](C)CC)C(C)C` [PF-322] (H-GIVLIGLKLIPLLANVLR-OH; N-terminus and C-terminus assumed) came in with an MIC of 50 µM (≈ 95.8 µg/mL).
Regarding RESKLIAMADMIRRRI [PF-545], the MIC against B. subtilis (B. subtilis, BHI, 30° C., aerobic, inoculum 10^5 CFU/ml, 18-24 h or 48 h) amounted to 25 µM; against A. niger (setting [1]) it was 50 µM; against MRSA (MRSA, BHI supplemented with 2% glucose, 37° C., aerobic, inoculum 10^5 CFU/ml, 18-24 h or 48 h), 50 µM.
Regarding `CSCC[C@H](NC(=O)[C@H](CCCNC(=N)N)NC(=O)[C@H](CCCNC(=N)N)NC(=O)[C@H](CC(C)C)NC(=O)[C@H](CCCNC(=N)N)NC(=O)[C@H](CCC(=O)O)NC(=O)[C@@H](NC(=O)[C@H](CS)NC(=O)CNC(=O)[C@H](CCCNC(=N)N)NC(=O)[C@@H](N)CCCNC(=N)N)[C@@H](C)O)C(=O)N[C@@H](C)C(=O)N[C@@H](CCCNC(=N)N)C(=O)N[C@@H](CCCNC(=N)N)C(=O)N[C@@H](CC(N)=O)C(=O)N[C@@H](C)C(=O)N[C@@H](Cc1c[nH]c2ccccc12)C(=O)N[C@@H](CC(=O)O)C(=O)N[C@@H](CC(C)C)C(=O)N[C@@H](Cc1ccc(O)cc1)C(=O)N[C@@H](C)C(=O)N[C@@H](CCC(=O)O)C(=O)N[C@@H](Cc1c[nH]cn1)C(=O)N[C@@H](Cc1ccccc1)C(=O)N[C@@H](Cc1ccc(O)cc1)C(=O)O` [PF-148] (H-RRGCTERLRRMARRNAWDLYAEHFY-OH; N-terminus and C-terminus assumed), the MIC against B. subtilis and in the test with A. niger was 50 µM (≈ 161 µg/mL) in each case.
For the compound `CC(C)C[C@H](NC(=O)[C@H](CCC(N)=O)NC(=O)[C@H](CO)NC(=O)[C@H](CCC(N)=O)NC(=O)[C@H](CC(C)C)NC(=O)[C@@H](N)CO)C(=O)NCC(=O)N1CCC[C@H]1C(=O)N[C@@H](CS)C(=O)N[C@@H](CC(C)C)C(=O)N[C@@H](Cc1c[nH]cn1)C(=O)N[C@@H](CC(=O)O)C(=O)N[C@@H](CCC(N)=O)C(=O)N[C@@H](CCCNC(=N)N)C(=O)N[C@@H](Cc1c[nH]cn1)C(=O)O` [PF-448] (H-SLQSQLGPCLHDQRH-OH; N-terminus and C-terminus assumed), the MIC turned out to be 25 µM (≈ 43 µg/mL) against A. niger and 50 µM (≈ 85.9 µg/mL) in the test on S. pneumoniae.
Regarding `CC[C@H](C)[C@H](NC(=O)[C@H](Cc1ccccc1)NC(=O)[C@@H](NC(=O)[C@H](Cc1ccccc1)NC(=O)[C@H](CC(C)C)NC(=O)[C@H](CC(=O)O)NC(=O)[C@@H](NC(=O)[C@H](CS)NC(=O)[C@@H](NC(=O)[C@H](CCCNC(=N)N)NC(=O)[C@H](CC(C)C)NC(=O)[C@@H](NC(=O)[C@@H](N)CC(C)C)C(C)C)[C@@H](C)CC)[C@@H](C)O)[C@@H](C)O)C(=O)N[C@@H](CCCCN)C(=O)N[C@@H](Cc1c[nH]c2ccccc12)C(=O)N[C@H](C(=O)N[C@H](C(=O)N[C@@H](CCCCN)C(=O)N[C@@H](CCC(N)=O)C(=O)N[C@@H](CCCNC(=N)N)C(=O)N[C@@H](CCCCN)C(=O)N[C@@H](CO)C(=O)O)[C@@H](C)CC)[C@@H](C)O` [PF-497] (H-LVLRICTDLFTFIKWTIKQRKS-OH; N-terminus and C-terminus assumed), the MIC against B. subtilis amounted to 50 µM (≈ 136 µg/mL). That is a double-digit micromolar value.
Consider LSEMERRRLRKRA [PF-529], for which the minimum inhibitory concentration (MIC) in the test on A. niger (setting [1]) and in the test with S. pneumoniae (setting [2]) was 50 µM throughout.
The compound `CC(C)[C@H](NC(=O)[C@H](C)NC(=O)[C@H](Cc1ccc(O)cc1)NC(=O)[C@@H](N)CC(N)=O)C(=O)N[C@H](C(=O)N[C@@H](CO)C(=O)N[C@@H](Cc1c[nH]cn1)C(=O)N[C@H](C(=O)O)[C@@H](C)O)C(C)C` [PF-209] (H-NYAVVSHT-OH; N-terminus and C-terminus assumed) displayed an MIC against MRSA of 50 µM (≈ 44.5 µg/mL).
As for `CC(C)C[C@H](NC(=O)[C@H](CCCCN)NC(=O)CNC(=O)[C@@H](N)CS)C(=O)N[C@@H](CC(C)C)C(=O)N[C@@H](CCC(=O)O)C(=O)N[C@@H](CCC(N)=O)C(=O)N[C@@H](CCCCN)C(=O)N[C@@H](CC(N)=O)C(=O)N[C@@H](Cc1ccccc1)C(=O)N[C@@H](Cc1ccccc1)C(=O)N[C@@H](CC(C)C)C(=O)N[C@@H](CCCCN)C(=O)N[C@H](C(=O)N[C@@H](CCCNC(=N)N)C(=O)O)[C@@H](C)O` [PF-521] (H-CGKLLEQKNFFLKTR-OH; N-terminus and C-terminus assumed), the minimum inhibitory concentration (MIC) in the test on S. pneumoniae is 50 µM (≈ 91.3 µg/mL).
Same read-out and setting: as for `CC[C@H](C)[C@H](NC(=O)[C@H](CCCNC(=N)N)NC(=O)[C@H](CO)NC(=O)[C@H](CC(C)C)NC(=O)[C@H](C)NC(=O)[C@H](C)NC(=O)[C@H](CC(C)C)NC(=O)[C@@H](NC(=O)[C@@H]1CCCN1C(=O)[C@H](CCCCN)NC(=O)[C@H](Cc1c[nH]cn1)NC(=O)[C@H](Cc1ccc(O)cc1)NC(=O)[C@H](CS)NC(=O)[C@@H](NC(=O)[C@H](CCCNC(=N)N)NC(=O)[C@@H]1CCCN1C(=O)[C@H](C)NC(=O)[C@H](CC(=O)O)NC(=O)[C@@H]1CCCN1)[C@@H](C)O)[C@@H](C)CC)C(=O)N[C@H](C(=O)N[C@H](C(=O)N[C@H](C(=O)N[C@@H](CC(=O)O)C(=O)N[C@@H](CCCNC(=N)N)C(=O)O)[C@@H](C)O)C(C)C)C(C)C` [PF-524] (H-PDAPRTCYHKPILAALSRIVVTDR-OH; N-terminus and C-terminus assumed), the figure is 50 µM (≈ 135 µg/mL); as for `CC(C)C[C@H](NC(=O)[C@H](CC(C)C)NC(=O)[C@H](Cc1c[nH]cn1)NC(=O)[C@H](CC(N)=O)NC(=O)[C@H](CCCCN)NC(=O)[C@H](CC(C)C)NC(=O)[C@H](CO)NC(=O)[C@H](CCCNC(=N)N)NC(=O)[C@H](CO)NC(=O)[C@H](C)NC(=O)[C@H](CCC(N)=O)NC(=O)[C@H](CCCCN)NC(=O)[C@H](CO)NC(=O)[C@H](C)NC(=O)[C@H](CCC(N)=O)NC(=O)[C@H](CCCCN)NC(=O)[C@H](CO)NC(=O)[C@H](C)NC(=O)[C@H](CCC(N)=O)NC(=O)[C@H](CCCCN)NC(=O)[C@H](CO)NC(=O)[C@H](C)NC(=O)[C@H](CCC(N)=O)NC(=O)[C@H](CCCCN)NC(=O)[C@H](CO)NC(=O)[C@H](C)NC(=O)[C@H](CCC(N)=O)NC(=O)[C@H](CCCCN)NC(=O)[C@H](CO)NC(=O)[C@H](C)N)C(=O)O` [PF-523] (H-ASKQASKQASKQASKQASKQASRSLKNHLL-OH; N-terminus and C-terminus assumed), 50 µM (≈ 161 µg/mL).
`CC[C@H](C)[C@H](NC(=O)[C@H](CCC(=O)O)NC(=O)[C@@H]1CCCN1C(=O)[C@H](CCSC)NC(=O)[C@H](Cc1ccccc1)NC(=O)[C@@H](N)CO)C(=O)N[C@@H](CCC(N)=O)C(=O)N[C@@H](CCCCN)C(=O)N[C@@H](CC(N)=O)C(=O)N[C@H](C(=O)N[C@H](C(=O)N1CCC[C@H]1C(=O)N[C@H](C(=O)N[C@@H](CCC(N)=O)C(=O)N[C@@H](CCSC)C(=O)N[C@@H](CCCCN)C(=O)O)[C@@H](C)O)[C@@H](C)CC)[C@@H](C)O` [PF-512] (H-SFMPEIQKNTIPTQMK-OH; N-terminus and C-terminus assumed): in the test with S. pneumoniae (setting [2]), the minimal inhibitory concentration (MIC) was found to be 50 µM (≈ 94.7 µg/mL).
As to `CC[C@H](C)[C@H](NC(=O)[C@H](CCC(N)=O)NC(=O)[C@H](CC(=O)O)NC(=O)[C@H](CO)NC(=O)[C@H](Cc1ccccc1)NC(=O)[C@@H](N)CCCCN)C(=O)N[C@@H](CC(=O)O)C(=O)N[C@@H](CCCCN)C(=O)NCC(=O)N[C@@H](CCC(N)=O)C(=O)N[C@@H](CC(=O)O)C(=O)N[C@@H](C)C(=O)N[C@@H](CC(C)C)C(=O)N[C@@H](CCCCN)C(=O)N[C@@H](CC(=O)O)C(=O)N[C@@H](CCCCN)C(=O)N[C@@H](CC(C)C)C(=O)NCC(=O)N[C@@H](CC(=O)O)C(=O)N[C@@H](CC(C)C)C(=O)O` [PF-525] (H-KFSDQIDKGQDALKDKLGDL-OH; N-terminus and C-terminus assumed), the MIC against A. niger and in the test with S. pneumoniae was 50 µM (≈ 112 µg/mL) each time.
As for `CC[C@H](C)[C@H](NC(=O)[C@H](CCCNC(=N)N)NC(=O)[C@H](CCCCN)NC(=O)[C@H](CCCCN)NC(=O)[C@H](CCSC)NC(=O)[C@H](CO)NC(=O)[C@H](CC(C)C)NC(=O)[C@H](CC(C)C)NC(=O)[C@H](CCCCN)NC(=O)[C@H](CCCNC(=N)N)NC(=O)[C@@H](NC(=O)[C@@H](NC(=O)[C@@H](NC(=O)[C@H](CC(C)C)NC(=O)[C@@H](NC(=O)[C@H](Cc1ccc(O)cc1)NC(=O)[C@H](CC(C)C)NC(=O)[C@H](Cc1ccccc1)NC(=O)[C@H](CO)NC(=O)[C@H](Cc1ccc(O)cc1)NC(=O)[C@@H](N)C(C)C)C(C)C)C(C)C)[C@@H](C)CC)C(C)C)C(=O)N[C@@H](CCC(=O)O)C(=O)N[C@@H](CCCNC(=N)N)C(=O)N[C@@H](CC(C)C)C(=O)O` [PF-499] (H-VYSFLYVLVIVRKLLSMKKRIERL-OH; N-terminus and C-terminus assumed), the MIC in the test with B. subtilis is 50 µM (≈ 148 µg/mL).
